Results published in article PMC10838953.

Legend:
survivin = conditions: 786-O cells; 2.5-15 μM; 48 h
CK2 in HEK293 cells = conditions: read-out: IC50 CK2 activity in cell extracts
[1] = target: ABL1(Q252H)-nonphosphorylated (Homo sapiens, UniProt P00519, Q252H); experiment: biochemical; conditions: read-out: %Ctrl @ 2000nM
ASK2 = ASK2 (Homo sapiens, UniProt O95382); experiment: biochemical; conditions: read-out: %Ctrl @ 2000nM
BMPR1A = BMPR1A (Homo sapiens, UniProt P36894); experiment: biochemical; conditions: read-out: %Ctrl @ 2000nM
Chain of BMPR1A (P36894 24-532): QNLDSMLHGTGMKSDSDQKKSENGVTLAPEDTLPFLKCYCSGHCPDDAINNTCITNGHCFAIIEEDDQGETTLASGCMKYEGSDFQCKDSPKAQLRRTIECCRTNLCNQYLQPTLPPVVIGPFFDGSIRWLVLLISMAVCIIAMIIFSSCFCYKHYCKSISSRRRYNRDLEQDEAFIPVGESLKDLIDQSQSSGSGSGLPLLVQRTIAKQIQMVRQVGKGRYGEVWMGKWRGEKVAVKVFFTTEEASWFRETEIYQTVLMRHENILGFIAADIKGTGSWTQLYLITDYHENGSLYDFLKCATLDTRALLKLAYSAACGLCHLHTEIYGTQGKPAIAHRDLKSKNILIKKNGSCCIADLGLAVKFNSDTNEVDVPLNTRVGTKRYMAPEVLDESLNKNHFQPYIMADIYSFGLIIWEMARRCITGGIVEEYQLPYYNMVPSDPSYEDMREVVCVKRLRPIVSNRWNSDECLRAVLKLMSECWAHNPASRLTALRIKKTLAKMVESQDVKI

CDC2L2 = CDC2L2 (Homo sapiens, UniProt Q9UQ88); experiment: biochemical; conditions: read-out: %Ctrl @ 2000nM
CDK4-cyclinD1 = CDK4-cyclinD1 (Homo sapiens, UniProt P11802); experiment: biochemical; conditions: read-out: %Ctrl @ 2000nM
CDKL3 = CDKL3 (Homo sapiens, UniProt Q8IVW4); experiment: biochemical; conditions: read-out: %Ctrl @ 2000nM
CSNK1A1L = CSNK1A1L (Homo sapiens, UniProt Q8N752); experiment: biochemical; conditions: read-out: %Ctrl @ 2000nM
DMPK = DMPK (Homo sapiens, UniProt Q09013); experiment: biochemical; conditions: read-out: %Ctrl @ 2000nM
DYRK1B = DYRK1B (Homo sapiens, UniProt Q9Y463); experiment: biochemical; conditions: read-out: %Ctrl @ 2000nM
[2] = target: EGFR(L747-E749del, A750P) (Homo sapiens, UniProt P00533, A750P/DEL747-749); experiment: biochemical; conditions: read-out: %Ctrl @ 2000nM
EGFR(L858R) = EGFR(L858R) (Homo sapiens, UniProt P00533, L858R); experiment: biochemical; conditions: read-out: %Ctrl @ 2000nM
EGFR(L861Q) = EGFR(L861Q) (Homo sapiens, UniProt P00533, L861Q); experiment: biochemical; conditions: read-out: %Ctrl @ 2000nM
EPHA1 = EPHA1 (Homo sapiens, UniProt P21709); experiment: biochemical; conditions: read-out: %Ctrl @ 2000nM
EPHA7 = EPHA7 (Homo sapiens, UniProt Q15375); experiment: biochemical; conditions: read-out: %Ctrl @ 2000nM
ERK8 = ERK8 (Homo sapiens, UniProt Q8TD08); experiment: biochemical; conditions: read-out: %Ctrl @ 2000nM
FAK = FAK (Homo sapiens, UniProt Q05397); experiment: biochemical; conditions: read-out: %Ctrl @ 2000nM
FGFR3(G697C) = FGFR3(G697C) (Homo sapiens, UniProt P22607, G697C); experiment: biochemical; conditions: read-out: %Ctrl @ 2000nM
FLT3(N841I) = FLT3(N841I) (Homo sapiens, UniProt P36888, N841I); experiment: biochemical; conditions: read-out: %Ctrl @ 2000nM
FYN = FYN (Homo sapiens, UniProt P06241); experiment: biochemical; conditions: read-out: %Ctrl @ 2000nM
HCK = HCK (Homo sapiens, UniProt P08631); experiment: biochemical; conditions: read-out: %Ctrl @ 2000nM
HIPK1 = HIPK1 (Homo sapiens, UniProt Q86Z02); experiment: biochemical; conditions: read-out: %Ctrl @ 2000nM
HIPK3 = HIPK3 (Homo sapiens, UniProt Q9H422); experiment: biochemical; conditions: read-out: %Ctrl @ 2000nM
Chain of HIPK3 (Q9H422 whole entry): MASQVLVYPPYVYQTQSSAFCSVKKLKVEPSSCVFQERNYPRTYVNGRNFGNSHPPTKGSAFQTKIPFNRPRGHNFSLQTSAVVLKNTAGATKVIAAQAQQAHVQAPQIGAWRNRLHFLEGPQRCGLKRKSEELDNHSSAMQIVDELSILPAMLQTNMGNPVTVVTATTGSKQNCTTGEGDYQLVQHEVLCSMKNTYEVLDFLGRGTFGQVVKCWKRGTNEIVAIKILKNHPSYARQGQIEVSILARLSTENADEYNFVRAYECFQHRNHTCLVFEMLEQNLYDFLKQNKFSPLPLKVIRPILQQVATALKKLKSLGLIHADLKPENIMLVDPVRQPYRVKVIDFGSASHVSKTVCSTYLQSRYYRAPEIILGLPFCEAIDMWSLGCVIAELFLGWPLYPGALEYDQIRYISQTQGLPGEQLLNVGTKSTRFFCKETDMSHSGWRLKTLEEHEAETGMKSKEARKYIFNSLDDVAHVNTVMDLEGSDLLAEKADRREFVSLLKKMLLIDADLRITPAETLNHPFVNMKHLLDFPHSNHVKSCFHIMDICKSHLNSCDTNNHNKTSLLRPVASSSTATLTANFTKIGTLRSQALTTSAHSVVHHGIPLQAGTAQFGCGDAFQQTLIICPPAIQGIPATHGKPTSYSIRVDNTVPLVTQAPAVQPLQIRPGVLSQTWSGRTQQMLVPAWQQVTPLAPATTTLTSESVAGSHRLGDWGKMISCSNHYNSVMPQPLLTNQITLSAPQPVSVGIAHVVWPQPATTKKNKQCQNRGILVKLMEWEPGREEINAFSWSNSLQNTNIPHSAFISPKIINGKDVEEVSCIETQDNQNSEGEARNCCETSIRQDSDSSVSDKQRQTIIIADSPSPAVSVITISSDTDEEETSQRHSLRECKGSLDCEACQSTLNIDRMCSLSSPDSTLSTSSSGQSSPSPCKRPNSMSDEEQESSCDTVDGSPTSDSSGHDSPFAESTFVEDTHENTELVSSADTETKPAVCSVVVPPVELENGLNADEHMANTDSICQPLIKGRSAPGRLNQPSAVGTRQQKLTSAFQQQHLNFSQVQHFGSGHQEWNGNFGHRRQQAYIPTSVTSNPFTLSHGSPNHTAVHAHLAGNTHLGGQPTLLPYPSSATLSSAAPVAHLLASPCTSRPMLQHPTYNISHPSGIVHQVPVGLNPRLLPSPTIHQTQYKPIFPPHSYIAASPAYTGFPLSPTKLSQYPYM

[3] = target: JAK1(JH1domain-catalytic) (Homo sapiens, UniProt P23458); experiment: biochemical; conditions: read-out: %Ctrl @ 2000nM
LIMK2 = LIMK2 (Homo sapiens, UniProt P53671); experiment: biochemical; conditions: read-out: %Ctrl @ 2000nM
p38-beta = p38-beta (Homo sapiens, UniProt Q15759); experiment: biochemical; conditions: read-out: %Ctrl @ 2000nM
Chain of p38-beta (Q15759 whole entry): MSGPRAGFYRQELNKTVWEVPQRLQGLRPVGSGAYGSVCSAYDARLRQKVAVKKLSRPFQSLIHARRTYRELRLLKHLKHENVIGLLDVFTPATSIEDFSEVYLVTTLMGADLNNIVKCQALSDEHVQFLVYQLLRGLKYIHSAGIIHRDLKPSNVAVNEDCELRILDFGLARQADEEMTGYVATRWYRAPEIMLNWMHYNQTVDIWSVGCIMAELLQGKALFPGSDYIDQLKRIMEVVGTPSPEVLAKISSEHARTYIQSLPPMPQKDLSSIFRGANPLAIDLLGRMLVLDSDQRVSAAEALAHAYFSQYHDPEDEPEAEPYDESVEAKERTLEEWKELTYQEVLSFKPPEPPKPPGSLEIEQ

PAK1 = PAK1 (Homo sapiens, UniProt Q13153); experiment: biochemical; conditions: read-out: %Ctrl @ 2000nM
PIK3CD = PIK3CD (Homo sapiens, UniProt O00329); experiment: biochemical; conditions: read-out: %Ctrl @ 2000nM
Chain of PIK3CD (O00329 whole entry): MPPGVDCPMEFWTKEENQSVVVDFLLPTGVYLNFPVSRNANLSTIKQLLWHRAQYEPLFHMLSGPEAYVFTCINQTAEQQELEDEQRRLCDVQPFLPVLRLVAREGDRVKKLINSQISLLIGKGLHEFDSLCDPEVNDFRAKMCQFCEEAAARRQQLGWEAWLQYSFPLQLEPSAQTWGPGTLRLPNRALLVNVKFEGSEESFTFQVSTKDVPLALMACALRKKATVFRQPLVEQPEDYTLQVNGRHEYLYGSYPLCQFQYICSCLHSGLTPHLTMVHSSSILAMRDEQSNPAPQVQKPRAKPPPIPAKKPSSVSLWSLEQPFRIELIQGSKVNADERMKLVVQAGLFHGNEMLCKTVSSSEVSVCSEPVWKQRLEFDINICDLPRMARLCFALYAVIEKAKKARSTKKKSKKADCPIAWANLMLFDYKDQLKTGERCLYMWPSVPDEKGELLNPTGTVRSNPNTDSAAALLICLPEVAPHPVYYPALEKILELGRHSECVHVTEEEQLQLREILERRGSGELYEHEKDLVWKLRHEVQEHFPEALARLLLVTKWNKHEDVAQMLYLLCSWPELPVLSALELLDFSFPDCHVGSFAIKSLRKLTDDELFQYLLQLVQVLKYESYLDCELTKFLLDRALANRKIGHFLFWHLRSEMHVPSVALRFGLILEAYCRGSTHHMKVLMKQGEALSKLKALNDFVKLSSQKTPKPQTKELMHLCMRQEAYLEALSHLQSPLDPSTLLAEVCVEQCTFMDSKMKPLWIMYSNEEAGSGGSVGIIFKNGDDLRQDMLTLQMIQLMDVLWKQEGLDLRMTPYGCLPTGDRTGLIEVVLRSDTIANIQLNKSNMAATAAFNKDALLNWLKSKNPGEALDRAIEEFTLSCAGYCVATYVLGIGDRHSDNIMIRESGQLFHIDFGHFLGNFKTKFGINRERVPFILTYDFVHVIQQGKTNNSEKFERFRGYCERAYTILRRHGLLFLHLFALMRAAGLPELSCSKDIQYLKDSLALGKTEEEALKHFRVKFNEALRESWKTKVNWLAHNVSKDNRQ

PIP5K2B = PIP5K2B (Homo sapiens, UniProt P78356); experiment: biochemical; conditions: read-out: %Ctrl @ 2000nM
PLK1 = PLK1 (Homo sapiens, UniProt P53350); experiment: biochemical; conditions: read-out: %Ctrl @ 2000nM
PYK2 = PYK2 (Homo sapiens, UniProt Q14289); experiment: biochemical; conditions: read-out: %Ctrl @ 2000nM
Chain of PYK2 (Q14289 whole entry): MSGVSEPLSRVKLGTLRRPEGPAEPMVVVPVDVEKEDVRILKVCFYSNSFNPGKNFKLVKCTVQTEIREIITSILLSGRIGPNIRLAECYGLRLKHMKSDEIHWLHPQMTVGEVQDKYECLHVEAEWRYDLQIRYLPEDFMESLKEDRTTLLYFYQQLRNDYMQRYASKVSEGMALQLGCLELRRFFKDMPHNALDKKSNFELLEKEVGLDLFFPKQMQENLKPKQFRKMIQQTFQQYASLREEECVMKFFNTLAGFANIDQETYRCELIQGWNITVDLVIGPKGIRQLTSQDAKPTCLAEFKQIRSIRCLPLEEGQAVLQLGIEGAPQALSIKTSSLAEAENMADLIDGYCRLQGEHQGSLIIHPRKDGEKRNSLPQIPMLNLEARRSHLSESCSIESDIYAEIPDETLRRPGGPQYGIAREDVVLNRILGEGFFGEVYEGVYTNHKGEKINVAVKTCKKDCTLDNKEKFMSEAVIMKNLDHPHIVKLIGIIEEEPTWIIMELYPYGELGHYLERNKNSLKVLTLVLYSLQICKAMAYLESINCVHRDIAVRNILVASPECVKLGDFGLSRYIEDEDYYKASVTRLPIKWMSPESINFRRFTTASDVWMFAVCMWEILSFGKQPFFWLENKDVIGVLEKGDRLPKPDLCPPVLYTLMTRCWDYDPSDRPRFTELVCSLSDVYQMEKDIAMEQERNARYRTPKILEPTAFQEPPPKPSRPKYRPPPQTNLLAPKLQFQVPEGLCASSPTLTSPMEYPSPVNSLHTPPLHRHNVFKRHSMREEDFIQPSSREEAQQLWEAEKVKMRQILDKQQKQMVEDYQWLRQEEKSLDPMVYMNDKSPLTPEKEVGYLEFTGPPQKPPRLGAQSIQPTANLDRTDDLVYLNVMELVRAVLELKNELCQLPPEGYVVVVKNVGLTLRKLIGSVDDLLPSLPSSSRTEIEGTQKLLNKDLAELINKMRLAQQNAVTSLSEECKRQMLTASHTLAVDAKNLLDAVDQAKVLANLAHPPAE

[4] = target: RSK4(Kin.Dom.1-N-terminal) (Homo sapiens, UniProt Q9UK32); experiment: biochemical; conditions: read-out: %Ctrl @ 2000nM
[5] = target: RSK4(Kin.Dom.2-C-terminal) (Homo sapiens, UniProt Q9UK32); experiment: biochemical; conditions: read-out: %Ctrl @ 2000nM
SIK2 = SIK2 (Homo sapiens, UniProt Q9H0K1); experiment: biochemical; conditions: read-out: %Ctrl @ 2000nM
Chain of SIK2 (Q9H0K1 whole entry): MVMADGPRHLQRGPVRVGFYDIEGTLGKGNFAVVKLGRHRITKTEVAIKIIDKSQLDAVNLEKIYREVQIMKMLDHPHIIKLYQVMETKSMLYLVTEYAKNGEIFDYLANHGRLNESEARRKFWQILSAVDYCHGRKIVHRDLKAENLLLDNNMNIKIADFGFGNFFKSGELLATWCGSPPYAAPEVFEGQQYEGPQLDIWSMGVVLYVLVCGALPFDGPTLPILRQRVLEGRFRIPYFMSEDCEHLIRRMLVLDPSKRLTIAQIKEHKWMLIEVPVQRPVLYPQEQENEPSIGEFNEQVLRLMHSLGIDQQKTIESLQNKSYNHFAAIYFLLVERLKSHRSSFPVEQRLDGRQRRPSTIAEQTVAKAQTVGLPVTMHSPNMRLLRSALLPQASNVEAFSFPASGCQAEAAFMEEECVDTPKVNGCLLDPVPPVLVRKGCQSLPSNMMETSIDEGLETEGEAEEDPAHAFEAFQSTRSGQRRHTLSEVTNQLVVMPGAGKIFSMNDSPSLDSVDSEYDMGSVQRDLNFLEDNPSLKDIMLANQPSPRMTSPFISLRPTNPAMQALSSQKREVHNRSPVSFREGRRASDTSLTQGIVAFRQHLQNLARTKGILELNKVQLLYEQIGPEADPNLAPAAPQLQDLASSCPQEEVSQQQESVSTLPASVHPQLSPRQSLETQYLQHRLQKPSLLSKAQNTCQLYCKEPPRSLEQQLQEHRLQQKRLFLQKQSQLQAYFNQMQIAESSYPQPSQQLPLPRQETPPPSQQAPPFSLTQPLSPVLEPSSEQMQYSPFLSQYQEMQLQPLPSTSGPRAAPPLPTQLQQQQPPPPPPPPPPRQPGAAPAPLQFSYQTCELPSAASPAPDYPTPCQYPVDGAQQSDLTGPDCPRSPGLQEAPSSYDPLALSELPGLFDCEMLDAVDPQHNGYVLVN

SYK = SYK (Homo sapiens, UniProt P43405); experiment: biochemical; conditions: read-out: %Ctrl @ 2000nM
TNK1 = TNK1 (Homo sapiens, UniProt Q13470); experiment: biochemical; conditions: read-out: %Ctrl @ 2000nM
YES = YES (Homo sapiens, UniProt P07947); experiment: biochemical; conditions: read-out: %Ctrl @ 2000nM
YSK4 = YSK4 (Homo sapiens, UniProt Q56UN5); experiment: biochemical; conditions: read-out: %Ctrl @ 2000nM

For `CC(C)COC(=O)c1[nH]c2ccc(F)cc2c1-c1cn(CC2CCN(CCNS(=O)(=O)c3ccc(CC(C)C)cc3)CC2)nn1` [AB668, isobutyl 5-fluoro-3-(1-((1-(2-((4-isobutylphenyl)sulfonamido)ethyl)piperidin-4-yl)methyl)-1H-1,2,3-triazol-4-yl)-1H-indole-2-carboxylate], the “%Ctrl @ 2000nM” value (FLT3(ITD,F691L)) was 96%, the “Number of Hits S(1)” value (468 kinases) was 2 and the “Number of Hits S(10)” value (468 kinases) was 3. The “Number of Hits S(35)” value (468 kinases) was 4, the expression of survivin (survivin) was “reduced the expression of survivin” and the cytotoxicity (primary hepatocytes) was “no cytotoxicity”. For the same compound, the IC50 (CK2 in HEK293 cells) was 600 ± 110 nM, the remaining activity at 2 µM [1] was 73% and the remaining activity at 2 µM (ASK2) was 75%. It also gave a remaining activity at 2 µM (BMPR1A) of 77%, a remaining activity at 2 µM (CDC2L2) of 94% and a remaining activity at 2 µM (CDK4-cyclinD1) of 84%. For the same compound, the remaining activity at 2 µM (CDKL3) was 88%, the remaining activity at 2 µM (CSNK1A1L) was 86% and the remaining activity at 2 µM (DMPK) was 90%. For the same compound, the remaining activity at 2 µM (DYRK1B) was 83%, the remaining activity at 2 µM [2] was 90% and the remaining activity at 2 µM (EGFR(L858R)) was 96%. For the same compound, the remaining activity at 2 µM (EGFR(L861Q)) was 79%, the remaining activity at 2 µM (EPHA1) was 99% and the remaining activity at 2 µM (EPHA7) was 93%. It also gave a remaining activity at 2 µM (ERK8) of 53%, a remaining activity at 2 µM (FAK) of 91% and a remaining activity at 2 µM (FGFR3(G697C)) of 100%. The remaining activity at 2 µM (FLT3(N841I)) was 95%, the remaining activity at 2 µM (FYN) was 64% and the remaining activity at 2 µM (HCK) was 96%. For the same compound, the remaining activity at 2 µM (HIPK1) was 100%, the remaining activity at 2 µM (HIPK3) was 98% and the remaining activity at 2 µM [3] was 75%. The remaining activity at 2 µM (LIMK2) was 84%, the remaining activity at 2 µM (p38-beta) was 74% and the remaining activity at 2 µM (PAK1) was 99%. The remaining activity at 2 µM (PIK3CD) was 91%, the remaining activity at 2 µM (PIP5K2B) was 100% and the remaining activity at 2 µM (PLK1) was 100%. For the same compound, the remaining activity at 2 µM (PYK2) was 95%, the remaining activity at 2 µM [4] was 88% and the remaining activity at 2 µM [5] was 94%. The remaining activity at 2 µM (SIK2) was 100%, the remaining activity at 2 µM (SYK) was 100% and the remaining activity at 2 µM (TNK1) was 96%. For the same compound, the remaining activity at 2 µM (YES) was 100% and the remaining activity at 2 µM (YSK4) was 100%.
